Test results from publication PMC7932521, “2-aminobenzimidazoles for leishmaniasis: From initial hit discovery to in vivo profiling” (PLoS Neglected Tropical Diseases, 2021).
Read-outs that look alike come from different tables or passages of the source.

Experiments:
[1] = system: Leishmania infantum MHOM/MA(BE)/67/ITMAP263 amastigotes; experiment: L. infantum intracellular amastigote assay in PMM; assay type: cell-based; conditions: for SI: selectivity index (CC50 / IC50): CC50 / L. infantum IC50; for IC50: Leishmania infantum, read-out: L. infantum IC50
Procedure: (§1) Leishmania infantum MHOM/MA(BE)/67/ITMAP263 amastigotes were collected from the spleen of infected donor Golden hamsters. Primary peritoneal mouse macrophages (PMM) were used as host cells for in vitro assays. PMM were collected from Swiss mice after 2 days of peritoneal stimulation with a 2% suspension of potato starch and maintained in RPMI-1640 medium supplemented with 200 mM L-glutamine, antibiotics and 5% FCS at 37°C and 5% CO2. Promastigotes of L. infantum chagasi (luciferase) (MHOM/BR/2005/NLC) obtained as described in Reimão et al.,[27] were grown in M199 medium supplemented with 10% FCS, 0.25% hemin, 32 μg/ml hygromycin and 2% sterile human urine at 25°C and 5% CO2.
(§2) Stock solutions of the compounds at 20 mM were prepared in 100% DMSO. Next, the compounds were serially pre-diluted in DMSO followed by a further dilution in demineralized water to assure a final in-test DMSO concentration below 1%. The compounds were tested at 4-fold dilutions starting at 64 μM.
For the antileishmania in vitro assays, 3×10^4 PMM/well were seeded in 96-well plates. After 24h, 5×10^5 amastigotes/well were added and incubated for 2h at 37°C. Next, the compounds in 4-fold serial dilutions were added and the plates were further incubated for 5 days (37°C, 5% CO2). Parasite burdens were assessed using an inverted microscope after Giemsa staining. The results were expressed as percent reduction in parasite burdens compared to negative control wells (100% growth) and IC50 values were determined. Values represent the geometric mean of at least two independent experiments. Miltefosine was used as the positive control in all plates.

[2] = MRC-5 cytotoxicity; assay type: cell-based; conditions: human, MRC-5 cells; S1 Data
[3] = system: PMM (Primary Mouse Macrophages); experiment: Cytotoxicity on primary peritoneal mouse macrophages; assay type: cell-based; conditions: Mus musculus, Macrophage, read-out: PMM IC50
Procedure: as §1, §2

[4] = Experimental distribution coefficient (eLogD); assay type: physicochemical; conditions: pH 7.4
Procedure: To determine the lipophilicity of the compounds, a methodology based on the retention time of molecules in reverse stationary phase (Ascentis RP-Amide HPLC column) was used. The chromatogram was obtained using LC-MS/MS. Test compounds were prepared at 1.0 μg/mL by adding the stock solution at (1:1) mobile phases A:B + internal standard at 200nM (A: 5% methanol in 10mM ammonium acetate pH 7.4, B: 100% methanol), DMSO concentration must be lower than 2%. […] The retention time (in minutes) of each of the eight standards was plotted against their LogD values. The resulting equation for the calibration curve (y = mx + b) was used to calculate the LogD values for the test compounds.

[5] = Parallel artificial membrane permeability assay (PAMPA); assay type: in vitro ADME; conditions: PAMPA, S1 Data; read-out: PAMPA Pe
Procedure: To determine the passive permeability of the compounds, a 96-well plate containing membranes pre-coated with lipids (Corning Gentest # 353015) was used. The solutions of the compounds were prepared by diluting the stock solutions (10mM) in phosphate buffered saline (PBS) pH 6.5 at a final concentration of 10μM. The solutions diluted in PBS pH 6.5 were then added to the donor portion of the plate (300 μl/well), while PBS pH 7.4 (200 μl/well) was added to the acceptor portion. The two portions of the plate were then coupled, and the system was incubated for 5 h at 37°C. At the end of the incubation, samples were collected from the donor and acceptor plates, and then added to plates containing quench solution (10% water and 90% methanol: acetonitrile (50:50) + 50 nM tolbutamide). The final concentrations of compounds in the donor, acceptor, and initial solution (T0) wells were analyzed using LC-MS/MS. The results were used to calculate an effective permeability (Pe) value. The PAMPA assay was performed in triplicate (n = 3).

[6] = Mouse liver microsomal stability; assay type: in vitro ADME; conditions: for microsomal CLint at 0.5 μM: CD1, mouse, liver microsomes
Procedure: The metabolic stability of the compounds was evaluated in human (pool of 200 donors, XenoTech) and mouse liver microsomes (CD1 mouse, GIBCO). Test compounds were prepared at a concentration of 0.5 μM and incubated with 0.25 mg/mL liver microsomes at pH 7.4 and 37°C. The reaction was started by addition of NADPH at […]. Samples were taken at 0, 5, 10, 15, 20 and 30 minutes. The reaction was stopped by the addition of acetonitrile:methanol (1:1) containing an internal standard (tolbutamide at 50 nM). Compounds were quantified by liquid chromatography triple quadrupole mass spectrometry (LC-MS/MS). Peak area ratios (analyte/internal standard) were converted to % remaining using the area ratio at time 0 as 100%. Half-life (t1/2 = ln(2)/k) in minutes and intrinsic clearance (Clint = k x 1000/(0.25)) in μL/min/mg were calculated using a non-linear regression from % remaining versus incubation time. From this plot, the slope (k) was determined. The analysis conditions were: analytical column (Gemini C18, […], Phenomenex), electrospray ionization source (ESI) in positive and negative mode, mobile phase A (water + 0.1% formic acid) and B (acetonitrile + 0.1% formic acid), flow rate of 0.7 mL/min.

[7] = 120 h, intracellular amastigotes in PMM, 5 days
[8] = reverse stationary phase HPLC column (Ascentis RP-Amide), S1 Data
[9] = reverse-phase HPLC retention (Ascentis RP-Amide column), experimental
[10] = pH 7.4, S1 Data, read-out: MLM CLint
[11] = pH 7.4, mouse liver microsome intrinsic clearance, read-out: MLM Clint

Structure (SMILES)	SI: selectivity index (CC50 / IC50) [1]	IC50 [1, 7]	IC50 ([1]; S1 Data)	CC50 [2]	IC50 [3]	chromatographic logD [4, 8]	Papp at 5 h, 10 μM [5]	MLM CLint ([6]; S1 Data)	chromatographic logD [4, 9]	microsomal CLint at 0.5 μM [6, 10]	MLM CLint ([6]; mouse liver microsome intrinsic clearance)	eLogD ([4]; experimental)	microsomal CLint at 0.5 μM [6, 11]
CC(C)(C)Cn1c(NC(=O)c2cccnc2)nc2ccc(C#N)cc21 [Compound 41, O=C(Nc1n(CC(C)(C)C)c(c2n1)cc(C#N)cc2)c3cccnc3]	2	8.6 µM	8.57 µM	> 64 µM	16 µM	3.9	18 ×10⁻⁶ cm/s	87 µL/min/mg	–	–	–	–	–
CCCn1c(NC(=O)Cc2ccc(F)cc2)nc2c(F)cccc21 [Compound 5, Fc1cccc2c1nc(NC(=O)Cc3ccc(F)cc3)n2CCC]	1	–	> 64 µM	> 64 µM	> 64 µM	3.57	16.2 ×10⁻⁶ cm/s	715 µL/min/mg	3.6	–	–	–	–
CCn1c(NC(=O)Cc2ccc(F)cc2)nc2ccc(F)cc21 [Compound 16, Fc1cc2c(nc(NC(=O)Cc3ccc(F)cc3)n2CC)cc1]	–	4.4 µM	4.35 µM	> 64 µM	> 64 µM	3.59	19.4 ×10⁻⁶ cm/s	–	–	538 µL/min/mg	–	–	–
O=C(Cc1ccc(F)cc1)Nc1nc2cc(F)ccc2n1CCCN1CCOCC1 [Compound 27, Fc1cc(nc(NC(=O)Cc2ccc(F)cc2)n3CCCN4CCOCC4)c3cc1]	–	24 µM	23.5 µM	60.9 µM	45.2 µM	3.42	4.74 ×10⁻⁶ cm/s	–	–	335 µL/min/mg	–	–	–
CCCn1c(NC(=O)Cc2ccc(F)cc2)nc2cc(F)c(F)cc21 [Compound 6, Fc1cc(n(CCC)c(NC(=O)Cc2ccc(F)cc2)n3)c3cc1F]	29	2.2 µM	2.19 µM	> 64 µM	> 64 µM	4.04	13.6 ×10⁻⁶ cm/s	–	–	–	399 µL/min/mg	–	–
CCCn1c(NC(=O)Cc2ccc(F)cc2)nc2ccc(C#N)cc21 [Compound 8, n1c(c2n(CCC)c1NC(=O)Cc3ccc(F)cc3)ccc(C#N)c2]	1	46 µM	45.6 µM	> 64 µM	45.2 µM	3.6	30.7 ×10⁻⁶ cm/s	–	–	226 µL/min/mg	–	3.6	225 µL/min/mg
CC(C)(C)Cn1c(NC(=O)c2ccccn2)nc2ccc(C#N)cc21 [Compound 40, CC(Cn1c(NC(=O)c2ccccn2)nc(c13)ccc(C#N)c3)(C)C]	1	15 µM	14.9 µM	60.9 µM	16 µM	3.93	3.62 ×10⁻⁶ cm/s	–	4	1030 µL/min/mg	–	–	–
Cn1nccc1C(=O)Nc1nc2ccc(C#N)cc2n1C1CCOCC1 [Compound 32, O=C(c1ccnn1C)Nc2nc(ccc(C#N)c3)c3n2C4CCOCC4]	1	–	> 64 µM	> 64 µM	> 64 µM	2.32	11 ×10⁻⁶ cm/s	–	2.3	< 23 µL/min/mg	–	–	23 µL/min/mg
